Experimental data published in patent US20150246067A1, “ANTIVIRAL TREATMENT OF LYMPHOMA AND CANCER” (THE REGENTS OF THE UNIVERSITY OF MICHIGAN, priority 2009, published 2015).

System: HERV K (HML2)
Experiment: Reverse transcriptase activity in supernatants of drug-treated NCCIT cells (Reverse Transcription Assay Kit)
Assay type: cell-based, human
Details: 7 days, increasing doses of drug, supernatant, FIGS. 4A-I
Description: HIV antivirals were assayed to determine which antiviral agents have an antiviral effect against HERV K (HML2). The NCCIT cell line derived from a teratocarcinoma produces many HERV K (HML2) viral particles. NCCIT cells were maintained at 40% confluence in 6-well plates in RPMI medium and incubated for 7 days in the presence of increasing doses of nucleoside or non-nucleoside reverse transcriptase inhibitors or HIV protease inhibitors. Drugs, provided as lyophilized powders by the AIDS Research and Reference Reagent Program, were resuspended to a final concentration of 10 mg/mL (except for PFA: 60 mg/mL) in different solvents as recommended (SEE table 1). Cells were incubated for 7 days at increasing doses of drugs or the vehicle of solution as controls. Supernatants were collected and cell debris was removed by centrifugation at 2300 rpm for 20 min. Supernatant was assessed for Reverse Transcriptase Activity using the Reverse Transcription Assay Kit (Invitrogen) as described by the manufacturer. In addition, supernatants were treated with 20 units of DNAse (Roche) for 1 hour at 37° C. and viral RNA was extracted using the Viral RNA mini kit (Qiagen) as described by the manufacturer. The HERV-K type 2 viral load was measured by quantitative Real Time RT-PCR using primers that expand the type-2 env gene region, which is absent in type-1 viruses, Kenv type2F: 5′-[…]-3′ (SEQ ID NO. 1), and Kenv type2R: 5′-[…]-3′ (SEQ ID NO. 2). Standard curves were generated using serial dilutions of in vitro RNA transcripts as external calibrators. In a similar way, quantities of HERV—K type 2 proviruses were measured by Real Time PCR using 500 ng of isolated DNA.

SMILES: Nc1nc(=O)n([C@@H]2CS[C@H](CO)O2)cc1F [FTC, Emtricitabine]
- HERV K (HML2) RT activity: reduction

SMILES: O=c1[nH]cnc2c1ncn2[C@H]1CC[C@@H](CO)O1 [ddI, Dideoxyinosine]
- HERV K (HML2) RT activity: reduction

SMILES: O=c1nc(NO)ccn1[C@@H]1O[C@H](CO)[C@@H](O)[C@H]1O [β-D hydroxycytidine, β-d hydroxy cytidine]
- HERV K (HML2) RT activity: reduction

SMILES: CC(C)OC(=O)OCOP(=O)(CO[C@H](C)Cn1cnc2c(N)ncnc21)OCOC(=O)OC(C)C [tenofovir disoproxil, Tenofovir disoproxyl fumarato]
- HERV K (HML2) RT activity: reduction

SMILES: Cc1cn([C@H]2C[C@H](N=[N+]=[N-])[C@@H](CO)O2)c(=O)[nH]c1=O [AZT, Zidovudine]
- HERV K (HML2) RT activity: reduction

SMILES: Nc1ccn([C@H]2CC[C@@H](CO)O2)c(=O)n1 [ddC, zalcitabine]
- HERV K (HML2) RT activity: reduction

SMILES: Nc1nc(NC2CC2)c2ncn([C@H]3C=C[C@@H](CO)C3)c2n1 [Abacavir]
- HERV K (HML2) RT activity: reduction

SMILES: Cc1cn([C@H]2C=C[C@@H](CO)O2)c(=O)[nH]c1=O [d4T, Stavudine]
- HERV K (HML2) RT activity: reduction
